Laboratory results: patent publication US20260008776A1 (HANGZHOU POLYMED BIOPHARMACEUTICALS, INC., priority 2023, published 2026)
Read-outs that look alike come from different tables or passages of the source.

Columns and labels:
[1] = type: physicochemical
Procedure: The glass dishes or glass vials were then placed in different environments of the constant temperature and humidity chamber, with conditions including: illumination: 4500±500 Lux (open); high temperature: 60° C.

[2] = DVS test of salt forms; type: physicochemical; conditions: for Hygroscopicity (DVS), in words: 0% to 90% humidity, two cycles
From the text: 1. The instrument sample pan was first tared and balanced.
3. The program was run: starting from 0% humidity as the initial point, slowly increasing to 90%, then returning to 0% to complete the cycle 1; rising again to 90% and decreasing back to 0% to conclude, completing the cycle 2 (as shown in FIGS. 35-36).

[3] = Solubility test of salts in pH buffers, water and physiological solutions; type: physicochemical
Procedure: The solubility of dominant salts in different pH buffers, water, and physiological solutions was determined. The specific steps for solubility determination are as follows: […] The vials were sealed, transferred to a magnetic stirrer, and maintained at 25° C. with a stirring rate of 500 rpm for 24 hours. The dissolution status in sample vials was recorded during the test. After 24 hours, approximately 1 mL of the suspension was filtered, and the filtrate was collected for solubility test via HPLC analysis. The pH value of the filtrate sample was measured using a pH meter.

[4] = High Relative Humidity (RH = 90 ± 5%, Open, 25° C.), 5 Days
[5] = High Relative Humidity (RH = 90 ± 5%, Open, 25° C.), 11 Days
[6] = High Temperature (60° C., Sealed), 5 Days
[7] = High Temperature (60° C., Sealed), 11 Days
[8] = Strong Illumination (Open), 5 Days
[9] = Strong Illumination (Open), 11 Days

CC(C)(O)CCn1cc2cc(NC(=O)c3coc(-c4ccnc(C(F)(F)F)c4)n3)c(C(C)(C)O)cc2n1.Cl [crystal form A of hydrochloride salt]
Solid-state stability evaluation [1]: good physical and chemical stability | Color Change [1, 4]: No Change | Purity [1, 4]: 99.65% | Salt Type [1, 4]: No Change | Color Change [1, 5]: No Change | Purity [1, 5]: 99.79% | Salt Type [1, 5]: No Change | Color Change [1, 6]: No Change | Purity [1, 6]: 99.64% | Salt Type [1, 6]: No Change | Color Change [1, 7]: No Change | Purity [1, 7]: 99.48% | Salt Type [1, 7]: No Change | Purity ([1]; Initial State): 98.53% | Color Change ([1]; Initial State (colour)): White | Color Change [1, 8]: No Change | Purity [1, 8]: 99.68% | Salt Type [1, 8]: No Change | Color Change [1, 9]: No Change | Purity [1, 9]: 99.56% | Salt Type [1, 9]: No Change | Change of the sample before and after the DVS test [2]: no changes are observed | Hygroscopicity (DVS), in words [2]: low hygroscopicity | Water Sorption at 90% Relative Humidity [2]: 0.42% Water Sorption at 90% Relative Humidity | Desorption ([2]; cycle 1, 0% humidity): −0.06% | Sorption ([2]; cycle 1, 0% humidity): 0.00% | Desorption ([2]; cycle 1, 10% humidity): −0.02% | Sorption ([2]; cycle 1, 10% humidity): −0.02% | Desorption ([2]; cycle 1, 20% humidity): 0.01% | Sorption ([2]; cycle 1, 20% humidity): 0.00% | Desorption ([2]; cycle 1, 30% humidity): 0.04% | Sorption ([2]; cycle 1, 30% humidity): 0.03% | Desorption ([2]; cycle 1, 40% humidity): 0.07% | Sorption ([2]; cycle 1, 40% humidity): 0.06% | Desorption ([2]; cycle 1, 50% humidity): 0.11% | Sorption ([2]; cycle 1, 50% humidity): 0.09% | Desorption ([2]; cycle 1, 60% humidity): 0.16% | Sorption ([2]; cycle 1, 60% humidity): 0.13% | Desorption ([2]; cycle 1, 70% humidity): 0.21% | Sorption ([2]; cycle 1, 70% humidity): 0.17% | Desorption ([2]; cycle 1, 80% humidity): 0.30% | Sorption ([2]; cycle 1, 80% humidity): 0.28% | Desorption ([2]; cycle 1, 90% humidity): 0.42% | Sorption ([2]; cycle 1, 90% humidity): 0.42% | Desorption ([2]; cycle 2, 0% humidity): −0.05% | Sorption ([2]; cycle 2, 0% humidity): −0.06% | Desorption ([2]; cycle 2, 10% humidity): −0.02% | Sorption ([2]; cycle 2, 10% humidity): −0.03% | Desorption ([2]; cycle 2, 20% humidity): 0.01% | Sorption ([2]; cycle 2, 20% humidity): 0.01% | Desorption ([2]; cycle 2, 30% humidity): 0.05% | Sorption ([2]; cycle 2, 30% humidity): 0.03% | Desorption ([2]; cycle 2, 40% humidity): 0.08% | Sorption ([2]; cycle 2, 40% humidity): 0.07% | Desorption ([2]; cycle 2, 50% humidity): 0.12% | Sorption ([2]; cycle 2, 50% humidity): 0.10% | Desorption ([2]; cycle 2, 60% humidity): 0.17% | Sorption ([2]; cycle 2, 60% humidity): 0.14% | Desorption ([2]; cycle 2, 70% humidity): 0.22% | Sorption ([2]; cycle 2, 70% humidity): 0.19% | Desorption ([2]; cycle 2, 80% humidity): 0.32% | Sorption ([2]; cycle 2, 80% humidity): 0.30% | Desorption ([2]; cycle 2, 90% humidity): 0.45% | Sorption ([2]; cycle 2, 90% humidity): 0.45% | Solubility at 25° C. ([3]; Buffer pH = 1.0, 24 hours): 172.73 µg/mL | Solubility at 25° C. ([3]; Buffer pH = 6.8, 24 hours): <LOD | Solubility at 25° C. ([3]; FaSSIF (pH = 6.5), 24 hours): 2.09 µg/mL | Solubility at 25° C. ([3]; FeSSIF (pH = 5.0), 24 hours): 7.86 µg/mL | Solubility at 25° C. ([3]; SGF (pH = 1.2), 24 hours): 2.20 µg/mL | Solubility at 25° C. ([3]; Water, 24 hours): <LOD

CC(C)(O)CCn1cc2cc(NC(=O)c3coc(-c4ccnc(C(F)(F)F)c4)n3)c(C(C)(C)O)cc2n1.O=P(O)(O)O [crystal form A of phosphate salt]
Color Change [1, 4]: No Change | Purity [1, 4]: 99.66% | Salt Type [1, 4]: No Change | Color Change [1, 5]: No Change | Purity [1, 5]: 99.33% | Salt Type [1, 5]: No Change | Color Change [1, 6]: Turn Yellow | Purity [1, 6]: 99.49% | Salt Type [1, 6]: No Change | Color Change [1, 7]: Turn Yellow | Purity [1, 7]: 99.49% | Salt Type [1, 7]: No Change | Purity ([1]; Initial State): 99.18% | Color Change ([1]; Initial State (colour)): White | Color Change [1, 8]: No Change | Purity [1, 8]: 99.67% | Salt Type [1, 8]: No Change | Color Change [1, 9]: No Change | Purity [1, 9]: 99.01% | Salt Type [1, 9]: No Change | Change of the sample before and after the DVS test [2]: no changes are observed | Hygroscopicity (DVS), in words [2]: low hygroscopicity | Water Sorption at 90% Relative Humidity [2]: 0.80% Water Sorption at 90% Relative Humidity | Desorption ([2]; cycle 1, 0% humidity): −0.04% | Sorption ([2]; cycle 1, 0% humidity): 0.00% | Desorption ([2]; cycle 1, 10% humidity): −0.01% | Sorption ([2]; cycle 1, 10% humidity): 0.02% | Desorption ([2]; cycle 1, 20% humidity): 0.01% | Sorption ([2]; cycle 1, 20% humidity): 0.04% | Desorption ([2]; cycle 1, 30% humidity): 0.04% | Sorption ([2]; cycle 1, 30% humidity): 0.06% | Desorption ([2]; cycle 1, 40% humidity): 0.09% | Sorption ([2]; cycle 1, 40% humidity): 0.10% | Desorption ([2]; cycle 1, 50% humidity): 0.15% | Sorption ([2]; cycle 1, 50% humidity): 0.14% | Desorption ([2]; cycle 1, 60% humidity): 0.21% | Sorption ([2]; cycle 1, 60% humidity): 0.20% | Desorption ([2]; cycle 1, 70% humidity): 0.31% | Sorption ([2]; cycle 1, 70% humidity): 0.29% | Desorption ([2]; cycle 1, 80% humidity): 0.46% | Sorption ([2]; cycle 1, 80% humidity): 0.44% | Desorption ([2]; cycle 1, 90% humidity): 0.80% | Sorption ([2]; cycle 1, 90% humidity): 0.80% | Desorption ([2]; cycle 2, 0% humidity): −0.05% | Sorption ([2]; cycle 2, 0% humidity): −0.04% | Desorption ([2]; cycle 2, 10% humidity): −0.03% | Sorption ([2]; cycle 2, 10% humidity): −0.02% | Desorption ([2]; cycle 2, 20% humidity): 0.00% | Sorption ([2]; cycle 2, 20% humidity): 0.01% | Desorption ([2]; cycle 2, 30% humidity): 0.03% | Sorption ([2]; cycle 2, 30% humidity): 0.04% | Desorption ([2]; cycle 2, 40% humidity): 0.07% | Sorption ([2]; cycle 2, 40% humidity): 0.07% | Desorption ([2]; cycle 2, 50% humidity): 0.13% | Sorption ([2]; cycle 2, 50% humidity): 0.12% | Desorption ([2]; cycle 2, 60% humidity): 0.20% | Sorption ([2]; cycle 2, 60% humidity): 0.18% | Desorption ([2]; cycle 2, 70% humidity): 0.29% | Sorption ([2]; cycle 2, 70% humidity): 0.27% | Desorption ([2]; cycle 2, 80% humidity): 0.45% | Sorption ([2]; cycle 2, 80% humidity): 0.43% | Desorption ([2]; cycle 2, 90% humidity): 0.79% | Sorption ([2]; cycle 2, 90% humidity): 0.79% | Solubility at 25° C. ([3]; Buffer pH = 6.8, 24 hours): <LOD | Solubility at 25° C. ([3]; FaSSIF (pH = 6.5), 24 hours): <LOD | Solubility at 25° C. ([3]; FeSSIF (pH = 5.0), 24 hours): <LOD | Solubility at 25° C. ([3]; SGF (pH = 1.2), 24 hours): <LOD | Solubility at 25° C. ([3]; Water, 24 hours): <LOD

CC(C)(O)CCn1cc2cc(NC(=O)c3coc(-c4ccnc(C(F)(F)F)c4)n3)c(C(C)(C)O)cc2n1.O=S(=O)(O)O [crystal form A of sulfate salt]
Color Change [1, 4]: Turn Yellow | Purity [1, 4]: 99.08% | Salt Type [1, 4]: No Change | Purity [1, 5]: 99.14% | Salt Type [1, 5]: No Change | Color Change [1, 6]: Turn Yellow | Purity [1, 6]: 99.74% | Salt Type [1, 6]: No Change | Color Change [1, 7]: Turn Yellow | Purity [1, 7]: 98.39% | Salt Type [1, 7]: No Change | Purity ([1]; Initial State): 99.12% | Color Change ([1]; Initial State (colour)): White | Color Change [1, 8]: No Change | Purity [1, 8]: 99.35% | Salt Type [1, 8]: No Change | Color Change [1, 9]: No Change | Purity [1, 9]: 99.26% | Salt Type [1, 9]: No Change | Solubility at 25° C. ([3]; Buffer pH = 1.0, 24 hours): 179.03 µg/mL | Solubility at 25° C. ([3]; Buffer pH = 6.8, 24 hours): <LOD | Solubility at 25° C. ([3]; FaSSIF (pH = 6.5), 24 hours): <LOD | Solubility at 25° C. ([3]; FeSSIF (pH = 5.0), 24 hours): 19.45 µg/mL | Solubility at 25° C. ([3]; SGF (pH = 1.2), 24 hours): 2.88 µg/mL | Solubility at 25° C. ([3]; Water, 24 hours): 1.34 µg/mL
